Three compounds from ChEMBL document CHEMBL1146822, “Adenine derived inhibitors of the molecular chaperone HSP90-SAR explained through multiple X-ray structures” (Bioorg Med Chem Lett, 2004) can be followed below.

Usually GI50 stands for the concentration that inhibits growth by half. Read a high GI50 as lower sensitivity of the cells.

The experiment deals with HCT-116. Put plainly: Cellular activity against human colon tumor cell line, HCT116. It is filed as functional.
As for `C#CCCCn1c(Cc2cc(OC)c(OC)c(OC)c2Cl)nc2c(N)nc(F)nc21`, the GI50 was 3.9 µM.

On to `C#CCCCn1c(Cc2cc(OC)ccc2OC)nc2c(N)nc(F)nc21`, for which growth was halved (GI50) at 3.3 µM.

For the compound `CCCCn1c(Cc2cc(OC)ccc2OC)nc2c(N)nc(F)nc21`, the GI50 worked out at 3.4 µM.
